{
  "source": "patent US4368194A",
  "about": "“Pharmacologically active amine boranes” (The United States of America as represented by the …, priority 1981, dated 1983)",
  "key": {"liver mitochondria [1]": {"tested_on": "liver mitochondria", "assay": "Oxidative phosphorylation, succinate as substrate", "assay_type": "biochemical, rats", "settings": "5 μmoles", "summary_of_the_method": "(§1)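 Basal and ADP-stimulated respiration of 10% liver homogenates, with succinate (90 μmoles) or α-ketoglutarate (60 μmoles) as substrate, in sucrose/KCl/K2HPO4 medium. Test compounds at 5 μmoles in 1% CMC in 1.8 ml total. Rate given as μl O2 consumed/hr/mg wet liver weight.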"}, "cAMP levels in PMNs": {"tested_on": "cAMP levels in PMNs", "assay": "Cyclic-3',5'-adenosine monophosphate levels (cAMP) in PMNs", "assay_type": "cell-based", "settings": "1 h", "summary_of_the_method": "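Glycogen-elicited peritoneal neutrophils in MEM with 10% FCS, pH 7.4, exposed to test drugs at 5μ moles for 1 hr at 37° C; stopped with 6% trichloroacetic acid. cAMP measured by radioimmunoassay with 3H-cAMP tracer, expressed as p mole/10^7 PMNs.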"}, "Cathepsin [2]": {"tested_on": "Cathepsin", "assay": "Lysosomal free cathepsin activity, PMNs", "assay_type": "cell-based", "settings": "5 μmoles, in vitro; 60 min", "summary_of_the_method": "(§2)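 Glycogen-elicited peritoneal PMNs, or liver homogenate, incubated with 5 μmoles test drug in 1% CMC for 60 or 20 min at pH 5.0. Acid phosphatase: 0.1 M β-glycerol phosphate, inorganic phosphate read; cathepsin: 2% azocasein, acid-soluble peptides at 366 nm. Free activity expressed as percent of detergent-released total.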"}, "Acid phosphatase [3]": {"tested_on": "Acid phosphatase", "assay": "Lysosomal free acid phosphatase activity, PMNs", "assay_type": "cell-based", "settings": "5 μmoles", "summary_of_the_method": "as §2"}, "CF1 male mice": {"tested_on": "CF1 male mice", "assay": "Writhing reflex (acetic acid)", "assay_type": "in vivo", "summary_of_the_method": "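CF1 male mice were dosed with test drug at 20 mg/kg i.p. 20 min before 0.5 ml of 0.6% acetic acid. Abdominal stretches with hind-limb extension were counted over 10 min, starting 5 min after acid.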"}, "Sprague Dawley rats [4]": {"tested_on": "Sprague Dawley rats", "assay": "Red and white blood cell counts after 3 weeks dosing", "assay_type": "in vivo", "settings": "dosing for three weeks intraperitoneally, rats", "from_the_text": "Hematocrits were also obtained."}, "[5]": {"tested_on": "carrageenan induced edema in mouse foot pads", "assay": "Anti-inflammatory screen (carrageenan induced foot edema)", "assay_type": "in vivo, mice", "summary_of_the_method": "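Male CF1 mice (~30 g) given 10 mg/kg i.p. in 0.05% polysorbate 80-water, 3 hr and 30 min before 0.05 ml 2% carrageenan injected into the right hind plantar surface, with saline in the left foot as baseline. Feet excised at the ankle after 3 hr and weight increase measured.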"}, "Male Sprague Dawley rats": {"tested_on": "Male Sprague Dawley rats", "assay": "Chronic adjuvant arthritic screen", "assay_type": "in vivo", "protocol": "Male Sprague Dawley rats (about 160 g) were injected at the base of the tail with 0.2 ml of solution of killed and dried Mycobacterium butyricum and digitonin in mineral oil (see Waksman et al., J. Immunol., 85, 403 1960). Test drugs were administered intraperitoneally commencing on day 3 through day 20 at 2.5 mg/kg/day. Animals were sacrificed on day 21, and the feet were excised and weighed."}, "liver mitochondria [6]": {"tested_on": "liver mitochondria", "assay": "Oxidative phosphorylation, α-ketoglutarate as substrate", "assay_type": "biochemical, rats", "settings": "5 μmoles", "summary_of_the_method": "as §1"}, "Cathepsin [7]": {"tested_on": "Cathepsin", "assay": "Lysosomal free cathepsin activity, liver homogenate", "assay_type": "biochemical, rats", "settings": "5 μmoles", "summary_of_the_method": "(§3)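 Rat (Sprague Dawley) liver 10% homogenate in 0.25 M sucrose/0.001 M EDTA pH 7.2, incubated 20 min with 5 μmoles test drug in 1% CMC. Acid phosphatase: 0.1 M β-glycerol phosphate, acetate pH 5.0, inorganic phosphate read; cathepsin: 2% azocasein, pH 5.0, acid-soluble fragments at 366 nm. Percent free activity vs. total (0.02% detergent-released).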"}, "Acid phosphatase [8]": {"tested_on": "Acid phosphatase", "assay": "Lysosomal free acid phosphatase activity, liver homogenate", "assay_type": "biochemical, rats", "settings": "5 μmoles, in vitro; 20 min", "summary_of_the_method": "as §3"}, "Sprague Dawley rats [9]": {"tested_on": "Sprague Dawley rats", "assay": "Anti-pyretic screen", "assay_type": "in vivo", "protocol": "Sprague Dawley rats (about 200 g) were administered 2 ml of a 44% solution of Baker's yeast subcutaneously (see Roszkowski et al., supra) 18 hr prior to the injection of drugs at 2.5 or 5 mg/kg intraperitoneally resulting in an elevation of 3.46° F. Alternatively, rats were administered 0.25 mg killed and dried Mycobacterium butyricum (Difco) (see Randall et al., Arch int Pharmacodyn et De Ther, 220, 94 1976) subcutaneously prior to the administration of drugs. Rectal temperatures were taken immediately prior to and 2, 4, and 6 hr after drug administration."}, "[10]": {"target": "T1, prostaglandin synthetase from beef seminal vesicle (Bos taurus, UniProt O62664)", "T1 construct": "purchased; host or cells: beef seminal vesicle", "T1 sequence (O62664 25-600)": "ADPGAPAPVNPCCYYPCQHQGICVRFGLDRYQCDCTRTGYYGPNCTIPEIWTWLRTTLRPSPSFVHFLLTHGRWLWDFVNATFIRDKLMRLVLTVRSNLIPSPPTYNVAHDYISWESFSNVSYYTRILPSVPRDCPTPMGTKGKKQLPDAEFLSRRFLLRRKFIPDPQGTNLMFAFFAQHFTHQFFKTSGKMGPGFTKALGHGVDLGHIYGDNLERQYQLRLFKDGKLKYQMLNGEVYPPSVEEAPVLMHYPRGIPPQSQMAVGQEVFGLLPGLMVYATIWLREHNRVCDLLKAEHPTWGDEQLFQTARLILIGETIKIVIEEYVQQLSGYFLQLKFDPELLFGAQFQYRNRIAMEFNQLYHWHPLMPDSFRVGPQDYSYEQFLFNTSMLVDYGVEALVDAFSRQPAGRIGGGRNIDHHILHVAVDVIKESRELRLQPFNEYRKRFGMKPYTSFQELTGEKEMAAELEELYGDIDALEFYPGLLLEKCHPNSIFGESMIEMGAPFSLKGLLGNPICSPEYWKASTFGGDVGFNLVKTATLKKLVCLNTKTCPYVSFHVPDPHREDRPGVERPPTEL", "assay": "Prostaglandin synthetase activity", "assay_type": "biochemical", "settings": "10^-6 M", "protocol": "After 1 hr at 37° C. the reaction was stopped with 1 N HCl and extracted with ethyl ether and evaporated. […] The plates were dried and developed in iodine vapor and with the use of prostaglandin standards the appropriate areas were scraped and counted for ^3 H content. Indometacin was used as a standard at 10^-4 M concentration. Test drugs were used at 10^-6 M."}},
  "data": [
    {"smiles": "C[N+](C)(C)[BH2-]C#N", "note": "[Compound V, trimethylamine-cyanoborane]", "values": [
      {"measurement": "Oxidative Phosphorylation Succinate State 3", "setting": "liver mitochondria [1]; ADP stimulated respiration", "value": "51 ± 20", "unit": "% Control"},
      {"measurement": "Oxidative Phosphorylation Succinate State 4", "setting": "liver mitochondria [1]; basal respiration", "value": "133 ± 20", "unit": "% Control"},
      {"measurement": "activity at 5 µmol", "setting": "cAMP levels in PMNs; pH 7.4, read-out: PMNs cAMP Level", "value": 245, "unit": "%"},
      {"measurement": "activation at 5 µmol", "setting": "cAMP levels in PMNs; read-out: increase of cyclic adenosine monophosphate levels in PMNs", "value": 145, "unit": "%"},
      {"measurement": "PMNs % Free Cathespin Activity, pH5", "setting": "Cathepsin [2]", "value": "4 ± 2", "unit": "% Control"},
      {"measurement": "inhibition of free acid phosphatase activity in PMNs", "setting": "Acid phosphatase [3]", "value": 65, "unit": "%"},
      {"measurement": "PMNs % Free Acid Phosphatase Activity, pH5", "setting": "Acid phosphatase [3]; in vitro, 60 min", "value": "35 ± 5", "unit": "% Control"},
      {"measurement": "Writhing Reflex", "setting": "CF1 male mice; 20 mg/kg intraperitoneally, mice", "value": 18, "unit": "% Control"},
      {"measurement": "inhibition of the writhing reflex", "setting": "CF1 male mice; text summary of Table II", "value": 80, "unit": "%"},
      {"measurement": "alteration of the red blood or white blood cell count/cu mm", "setting": "Sprague Dawley rats [4]", "value": "no alteration"},
      {"measurement": "Anti-inflammatory Screen", "setting": "[5]; 10 mg/kg × 2 intraperitoneally, mice", "value": 42, "unit": "% Control"},
      {"measurement": "inhibition of the carrageenan induced edema in mouse foot pads", "setting": "[5]; text summary of Table II", "value": "at least 50%"},
      {"measurement": "inhibition in the rat induced arthritic screen", "setting": "Male Sprague Dawley rats; 1.25 mg/kg/day intraperitoneally", "value": 75, "unit": "%"},
      {"measurement": "inhibition in the rat induced arthritic screen", "setting": "Male Sprague Dawley rats; 5 mg/kg/day intraperitoneally", "value": 100, "unit": "%"},
      {"measurement": "inhibition in the rat induced arthritic screen", "setting": "Male Sprague Dawley rats; 10 mg/kg/day intraperitoneally", "value": 100, "unit": "%"},
      {"measurement": "both states 3 and 4 respiration with α-ketoglutarate", "setting": "liver mitochondria [6]", "value": "inhibited"},
      {"measurement": "Oxidative Phosphorylation α Ketoglutarate State 3", "setting": "liver mitochondria [6]; ADP stimulated respiration", "value": "42 ± 9", "unit": "% Control"},
      {"measurement": "Oxidative Phosphorylation α Ketoglutarate State 4", "setting": "liver mitochondria [6]; basal respiration", "value": "85 ± 21", "unit": "% Control"},
      {"measurement": "inhibition of free proteolytic cathepsin activity of liver", "setting": "Cathepsin [7]", "value": 100, "unit": "%"},
      {"measurement": "Liver % Free Cathepsin Activity, pH5", "setting": "Cathepsin [7]; in vitro, 20 min", "value": "0 ± 2", "unit": "% Control"},
      {"measurement": "Liver % Free Acid Phosphatase Activity, pH5", "setting": "Acid phosphatase [8]", "value": "69 ± 4", "unit": "% Control"},
      {"measurement": "inhibition of elevated body temperature", "setting": "Sprague Dawley rats [9]; 5 mg/kg", "value": "no inhibition"},
      {"measurement": "inhibition of elevated body temperature", "setting": "Sprague Dawley rats [9]; 10 mg/kg", "value": "no inhibition"},
      {"measurement": "inhibition at 1 µM", "setting": "[10]; read-out: inhibition of prostaglandin synthesis", "value": "> 30", "unit": "%"},
      {"measurement": "activity at 1 µM", "setting": "[10]; 1 h, read-out: Prostaglandin Synthesis", "value": "59 ± 6", "unit": "%"}
    ]}
  ]
}
